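Cultured in 96-well plates, cells were exposed to test compound for 48 hours across five concentrations. TGI denotes the concentration required for complete inhibition of growth.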
Legend:
Assay in all cases: NCI anticancer screen, dose series, 48 h
[1] = tested on: IGROV1 ovarian
[2] = tested on: SNB-78 CNS
[3] = tested on: SF-295 CNS
[4] = tested on: SK-MEL-28 melanoma
[5] = tested on: NCI-H460 lung
[6] = tested on: SNB-19 CNS
[7] = tested on: 786-0 renal
[8] = tested on: SF-539 CNS
[9] = tested on: LXFL 529 NSCLC
[10] = tested on: M19-MEL melanoma
[11] = tested on: COLO 205 colon
[12] = tested on: KM12 colon
[13] = tested on: SW-620 colon
[14] = tested on: UACC-62 melanoma
[15] = tested on: SN12C renal
[16] = tested on: HOP-92 NSCLC
[17] = tested on: OVCAR-4 ovarian
[18] = tested on: RXF 393 renal
[19] = tested on: HL-60(TB) leukemia
[20] = tested on: K-562 leukemia
[21] = tested on: A549 NSCLC
[22] = tested on: OVCAR-8 ovarian
[23] = tested on: KM20L2 colon
[24] = tested on: NCI-H226 lung
[25] = tested on: HCC-2998 colon
[26] = tested on: DMS 273 small cell lung
[27] = tested on: SK-MEL-5 melanoma
[28] = tested on: DLD-1 colon
[29] = tested on: U251 CNS
[30] = tested on: ACHN renal
[31] = tested on: SK-OV-3 ovarian
[32] = tested on: DMS 114 small cell lung
[33] = tested on: HT29 colon
[34] = tested on: SR leukemia
[35] = tested on: RPMI-8226 leukemia
[36] = tested on: NCI-H522 lung
[37] = tested on: OVCAR-5 ovarian
[38] = tested on: XF 498 CNS
[39] = tested on: TK-10 renal
[40] = tested on: NCI-H23 lung
[41] = tested on: MALME-3M melanoma
[42] = tested on: MOLT-4 leukemia
[43] = tested on: HOP-18 NSCLC
[44] = tested on: OVCAR-3 ovarian
[45] = tested on: SNB-75 CNS
[46] = tested on: HCT-116 colon
[47] = tested on: HOP-62 NSCLC
[48] = tested on: UO-31 renal
[49] = tested on: CAKI-1 renal
[50] = tested on: UACC-257 melanoma
[51] = tested on: A498 renal
[52] = tested on: SF-268 CNS
[53] = tested on: EKVX NSCLC
[54] = tested on: RXF-631 renal
[55] = tested on: M14 melanoma
[56] = tested on: LOX IMVI melanoma
[57] = tested on: CCRF-CEM leukemia
[58] = tested on: HCT-15 colon
[59] = tested on: SK-MEL-2 melanoma

Measured: TGI

O=S(=O)(O)CS(=O)(=O)OCCCl
not listed: [57] | [58] | [59]
> 100 µM: all other assays above

CCOC(=O)c1cccc(=O)c(C(=O)OCC)c1
45.4 µM: [24]
75.9 µM: [8]
65.9 µM: [57]
62.1 µM: [19]
not listed: [3] | [6] | [11] | [15] | [16] | [34] | [36] | [43] | [52] | [56]
> 100 µM: all other assays above
